Data from publication PMC13162264, “Chemoproteomic Elucidation of β‑Lactam Drug Targets in Mycobacterium abscessus” (ACS Infectious Diseases, 2026).
Values after ≈ are worked out from the molar mass of the structure shown. Like-named read-outs stand apart in the source and are kept apart here.

Tests used:
[1] = tested on: β-lactam targets in Mab 19977 whole-cell lysates; assay: β-lactam competition of Mero-sCy5 labeling in whole-cell lysates; format: binding, Mycobacterium abscessus subsp. abscessus; conditions: Mab 19977 lysate; drug 1 mM, then Mero-sCy5 5 μM
[2] = tested on: β-lactam targets in M9510 whole-cell lysates; assay: as above; format: binding, Mycobacterium abscessus subsp. massiliense; conditions: drug 1 mM, then Mero-sCy5 5 μM
[3] = tested on: M9510 (clinical strain, subsp. massiliense); parameters: method as in not given; conditions: supplemented Middlebrook 7H9 broth, reported values, ref not given; cited from earlier work
[4] = tested on: M9510 (clinical strain, subsp. massiliense); assay: Reported MIC in supplemented Middlebrook 7H9 broth; format: cell-based, Mycobacterium abscessus subsp. massiliense; conditions: from past characterization of M9510, ref not given
[5] = tested on: Mab 19977 (ATCC 19977, subsp. abscessus); parameters: method as in not given; conditions: supplemented Middlebrook 7H9 broth, reported values, ref not given; cited from earlier work
[6] = tested on: M. abscessus subsp. massiliense (n = 754 isolates); parameters: method as in Hunkins et al.; conditions: ref Hunkins et al.; cited from earlier work
PbpB = PbpB (Mycobacteroides abscessus, UniProt B1MP31); assay: β-lactam IC50 by drug treatment then Bocillin FL labeling, in-gel fluorescence; format: binding
[7] = tested on: M. abscessus subsp. abscessus (n = 1344 isolates); parameters: method as in Hunkins et al.; conditions: ref Hunkins et al.; cited from earlier work
Ldt4 [8] = target: T1, Ldt4 (Mycobacteroides abscessus, UniProt B1MKW1); assay: β-lactam IC50 by drug treatment then Bocillin FL labeling, in-gel fluorescence; format: binding, Mycobacterium abscessus
MAB_4800 = MAB_4800 (Mycobacteroides abscessus, UniProt B1MM83); assay: as above; format: binding
Sequence of MAB_4800 (B1MM83 entry or part of it): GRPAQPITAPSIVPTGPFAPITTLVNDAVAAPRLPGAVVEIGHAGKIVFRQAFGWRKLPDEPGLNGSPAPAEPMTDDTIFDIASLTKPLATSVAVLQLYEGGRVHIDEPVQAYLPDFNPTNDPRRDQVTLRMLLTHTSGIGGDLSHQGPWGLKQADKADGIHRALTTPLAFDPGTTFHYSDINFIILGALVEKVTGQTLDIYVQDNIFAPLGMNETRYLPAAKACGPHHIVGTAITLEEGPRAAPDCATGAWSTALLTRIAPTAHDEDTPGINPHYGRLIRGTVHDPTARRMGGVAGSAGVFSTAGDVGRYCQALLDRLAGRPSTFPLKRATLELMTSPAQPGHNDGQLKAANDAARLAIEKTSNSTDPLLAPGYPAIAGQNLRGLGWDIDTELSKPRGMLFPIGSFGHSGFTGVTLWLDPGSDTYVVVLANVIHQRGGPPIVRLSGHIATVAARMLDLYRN

MAB_0330 [9] = target: T2, MAB_0330 (Mycobacteroides abscessus, UniProt B1MFM9); assay: β-lactam competition of ABP labeling, recombinant enzyme; format: binding; conditions: drug 500 μM, 30 min 37 °C, then 10 μM Mero-sCy5 or Bocillin FL
T2 sequence (B1MFM9 entry or part of it): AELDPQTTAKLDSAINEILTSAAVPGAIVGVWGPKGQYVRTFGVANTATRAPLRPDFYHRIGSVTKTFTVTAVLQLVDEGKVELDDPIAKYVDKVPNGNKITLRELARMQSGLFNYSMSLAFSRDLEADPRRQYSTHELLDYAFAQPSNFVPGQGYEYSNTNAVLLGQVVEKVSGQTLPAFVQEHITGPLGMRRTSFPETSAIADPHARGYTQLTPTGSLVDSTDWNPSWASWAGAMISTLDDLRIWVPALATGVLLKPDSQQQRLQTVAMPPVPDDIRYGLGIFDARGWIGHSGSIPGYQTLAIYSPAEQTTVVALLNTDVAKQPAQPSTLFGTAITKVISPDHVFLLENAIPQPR

[10] = human, in vivo; cited from earlier work
MAB_0330 [11] = target: T2, MAB_0330; assay: β-lactam IC50 by drug treatment then Bocillin FL labeling, in-gel fluorescence; format: binding
DacB2 [12] = target: T3, DacB2 (Mycobacteroides abscessus, UniProt B1MDJ1); assay: as above; format: binding, Mycobacterium abscessus
T3 sequence (B1MDJ1 entry or part of it): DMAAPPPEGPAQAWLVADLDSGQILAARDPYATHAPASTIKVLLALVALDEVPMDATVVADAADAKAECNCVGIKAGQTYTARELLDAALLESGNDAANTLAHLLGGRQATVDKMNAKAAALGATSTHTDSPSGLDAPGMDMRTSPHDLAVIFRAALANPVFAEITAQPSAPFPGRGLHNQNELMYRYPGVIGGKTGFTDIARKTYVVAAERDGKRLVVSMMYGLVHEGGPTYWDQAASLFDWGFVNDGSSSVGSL

Ldt4 [13] = target: T1, Ldt4; assay: β-lactam competition of ABP labeling, recombinant enzyme; format: binding, Mycobacterium abscessus; conditions: drug 500 μM, 30 min 37 °C, then 10 μM Mero-sCy5 or Bocillin FL
Ldt2 = tested on: Ldt2; parameters: method as in not given; conditions: nitrocefin hydrolysis by Mab Ldt2, previously found, ref not given, cited from earlier work
recombinant BlaMab = assay: β-lactamase activity, nitrocefin hydrolysis; format: biochemical, Mycobacterium abscessus; conditions: data not shown
DacB2 [14] = target: T3, DacB2; assay: β-lactam competition of ABP labeling, recombinant enzyme; conditions: drug 500 μM, 30 min 37 °C, then 10 μM Mero-sCy5 or Bocillin FL
Protocol: Purified protein was incubated with drug or buffer only before labeling with either Mero-sCy5 or Bocillin FL. Samples were then resolved by SDS-PAGE and imaged for quantification.
Purified protein (3 μg) was combined with drug (500 μM) or buffer (no treatment, NT) in 10 mM HEPES pH 7.5 (30 min, 37 °C). Samples were then labeled with 10 μM ABP (Mero-sCy5 or Bocillin FL) for 1 h at 37 °C. Labeled protein was resolved via SDS-PAGE (1 μg/lane) and fluorescent signal was quantified as mean intensity of three independent replicates. Error is reported as standard deviation and statistical significance was determined by one-way ANOVA with Tukey multiple comparisons test.
β-lactam Competition of ABP Labeling
Purified enzymes (3 μg) were incubated with 500 μM imipenem monohydrate (IPM,
MedChemExpress, CAS 74431-23-5), cefoxitin sodium salt (FOX, Sigma-Aldrich, CAS
buffer only in 10 mM HEPES (pH 7.5 ) for 30 min at 37 °C. Samples were then
incubated with 10 μM Mero-sCy5 or Bocillin FL for 60 min at 37 °C. Samples were
denatured with 1X TCEP SDS-PAGE loading dye by heating (10 min, 75 °C). Protein (1
μg/lane) was resolved via SDS-PAGE on 10% Bis-Tris gels (Bio-Rad, 1X XT MES
running buffer). Triplicate samples of each enzyme were prepared independently and

[15] = tested on: M9510 whole-cell lysates (REP and CS); conditions: 10 μM probe
Protocol: (§1) (D) Mero-sCy5- and (E) Bocillin FL-labeled 19977 and M9510 lysates (30 μg) were resolved by SDS-PAGE (12 μg/lane) and scanned for fluorescent signal.
(§2) Normalized lysates were ABP-labeled, resolved by SDS-PAGE, and gels were scanned for fluorescent signal (Figure S3).
(§3) In-Gel Analysis of Mero-sCy5 and Bocillin FL Binding
(§4) Normalized total protein lysates (30 μg) were labeled with 10 μM Meropenem-sulfoCy5 6
(§5) (Mero-sCy5) or 10 μM Bocillin FL (Invitrogen) for 60 min at RT, protected from light.
(§6) Labeling reactions were quenched by the addition of 1x TCEP loading dye (5X stock:
(§7) glycerol). Samples were heated to 75 °C for 10 min and resolved (12 μg/lane) via SDS-
(§8) PAGE (Criterion Bis-Tris gels, XT-MES running buffer, Bio-Rad). Gels were de-stained
(§9) of free probe overnight (30% methanol, 10% acetic acid in water) and scanned using
(§10) Amersham Typhoon imager (Cytiva). Adjustment of image brightness and contrast and
(§11) band intensity quantification were performed with Fiji7. Total protein staining was done
(§12) using Coomassie R-250 (Thermo Scientific, CAS 6104-58-1) (Figure S3).

[16] = tested on: Mab 19977 whole-cell lysates (REP and CS); conditions: Mab 19977 lysates, 10 μM probe
Protocol: as §1, §2, §3, §4, §5, §6, §7, §8, §9, §10, §11, §12

[17] = target: Ldt4, PbpB, DacB2, and MAB_4800; assay: β-lactam IC50, range over the four enzymes; format: binding, Mycobacterium abscessus
[18] = tested on: O=C(Cc1cccs1)N[C@@H]1C(=O)N2C(C(=O)O)=C(/C=C/c3ccc([N+](=O)[O-])cc3[N+](=O)[O-])CS[C@H]12; assay: purified protein, by the assay type; conditions: other: nitrocefin hydrolysis by MAB_3998 (20 μM), 37 °C
Protocol: (B) Steady-state kinetic parameters for nitrocefin hydrolysis by Ldt4, PbpB, and MAB_3998.
To further characterize our findings, we determined the steady-state kinetic parameters for the hydrolysis of nitrocefin by Ldt4, PbpB, and MAB_3998 (Figure B).
Purified enzyme (Ldt4, 5 μM; PbpB, 20 μM; MAB_3998, 20 μM) or buffer alone was
in a 96-well microplate in 50 mM Tris-Cl pH 8.0 at 4 °C, 150 mM NaCl. Nitrocefin
hydrolysis was monitored at 486 nm on a microplate reader (30 sec intervals, 1-2 hr
duration, 37 °C). For Ldt4 and PbpB, initial rates were calculated from 240-570 sec of
the reaction. For MAB_3998, the initial rates were calculated from 120-1200 sec of the
reaction. The velocity against substrate concentration was fit to a nonlinear regression
assuming Michaelis-Menton steady-state kinetics in GraphPad Prism software.
Calculations were done using technical triplicates from two (MAB_3998) or three (Ldt4,
PbpB) separate experiments. Error is reported as standard deviation.

[19] = substrate: O=C(Cc1cccs1)N[C@@H]1C(=O)N2C(C(=O)O)=C(/C=C/c3ccc([N+](=O)[O-])cc3[N+](=O)[O-])CS[C@H]12; assay: Steady-state kinetics of nitrocefin hydrolysis; format: biochemical, Mycobacterium abscessus; conditions: 37 °C
[20] = 0.5 μM enzyme, drug 30 min 37 °C, then 10 µM Bocillin FL
[21] = IC50 Ldt4, 0.5 μM enzyme, drug 30 min 37 °C, then 10 µM Bocillin FL
[22] = other: nitrocefin hydrolysis by Ldt4 (5 μM)
[23] = other: nitrocefin hydrolysis by PbpB (20 μM)

CC1(C)S[C@@H]2[C@H](NC(=O)Cc3ccccc3)C(=O)N2[C@H]1C(=O)O [PEN, penicillin G]
inhibition of Mero-sCy5 labeling of targets in lysate [1]: largely ineffective inhibitors | inhibition of Mero-sCy5 labeling of targets in lysate [2]: largely ineffective inhibitors

C[C@@H](O)[C@H]1C(=O)N2C(C(=O)O)=C(S[C@@H]3CN[C@H](CNS(N)(=O)=O)C3)[C@H](C)[C@H]12 [doripenem]
MIC [3]: 64 µg/mL (≈ 152 µM) | increased MIC in M9510 relative to 19977 [4]: 4 fold | MIC [5]: 16 µg/mL (≈ 38 µM)

CC1(C)S[C@@H]2[C@H](NC(=O)[C@H](N)c3ccc(O)cc3)C(=O)N2[C@H]1C(=O)O [amoxicillin]
MIC [3]: > 256 µg/mL | MIC [5]: > 256 µg/mL

CO[C@@]1(NC(=O)Cc2cccs2)C(=O)N2C(C(=O)O)=C(COC(N)=O)CS[C@@H]21 [FOX, cefoxitin]
MIC [3]: 64 µg/mL (≈ 150 µM) | MIC90 [6]: 64 µg/mL (≈ 150 µM) | IC50 (PbpB; [20]): 12 ± 4 µM | inhibition of Mero-sCy5 labeling of targets in lysate [1]: inhibited many targets but not all | MIC90 [7]: 64 µg/mL (≈ 150 µM) | IC50 Ldt4 (Ldt4 [8]; [20]): did not inhibit | IC50 (Ldt4 [8]; [21]): > 1000 µM | IC50 (MAB_4800; [20]): > 1000 µM | IC50 MAB_4800 (MAB_4800; [20]): did not inhibit | MIC [5]: 64 µg/mL (≈ 150 µM) | inhibition of fluorescent ABP binding to MAB_0330 (MAB_0330 [9]): weakly inhibited | fCss,avg (median unbound average steady-state plasma concentration) [10]: 4.0 µg/mL | IC50 (MAB_0330 [11]; fit not accurate, error unacceptably large (± 180 μM IPM, ± 240 μM FOX)): 270 µM | IC50 (DacB2 [12]): 0.4 ± 0.9 µM | fold more potent inhibition of DacB2 than IPM (DacB2 [12]; IC50 comparison FOX vs IPM): 5 fold | inhibition of Mero-sCy5 labeling of targets in lysate [2]: inhibited many targets but not all | inhibition of fluorescent ABP binding to Ldt4 (Ldt4 [13]): did not inhibit

O=C(Cc1cccs1)N[C@@H]1C(=O)N2C(C(=O)O)=C(/C=C/c3ccc([N+](=O)[O-])cc3[N+](=O)[O-])CS[C@H]12 [nitrocefin]
maximal rate of hydrolysis (Ldt2): 0.33 µM/s | Km (Ldt2; read-out: affinity for nitrocefin (Km)): 328 µM | nitrocefin hydrolysis by BlaMab (recombinant BlaMab): complete nitrocefin hydrolysis near instantaneously

NC(=O)[C@@H]1CC[C@@H]2CN1C(=O)N2OS(=O)(=O)O [AVI, avibactam]
inhibition of fluorescent ABP binding to DacB2 (DacB2 [14]): intermediate inhibition | inhibition of fluorescent ABP binding to Ldt4 (Ldt4 [13]): enhancement of Ldt4 binding by Mero-sCy5

C[C@@H](O)[C@H]1C(=O)N2C(C(=O)O)=C(S[C@H]3C[C@@H](C(=O)N(C)C)N(C(=O)CCCCC[N+]4=C(/C=C/C=C/C=C5/N(C)c6ccc(S(=O)(=O)O)cc6C5(C)C)C(C)(C)c5cc(S(=O)(=O)[O-])ccc54)C3)[C@H](C)[C@H]12 [Mero-sCy5]
targets labeled in gel-resolved lysate [15]: labeled more targets than Bocillin FL | targets labeled in gel-resolved lysate [16]: labeled more targets than Bocillin FL

CC(C)(O/N=C(\C(=O)N[C@@H]1C(=O)N2C(C(=O)[O-])=C(C[n+]3ccccc3)CS[C@H]12)c1csc(N)n1)C(=O)O [ceftazidime]
MIC [3]: > 256 µg/mL | MIC [5]: > 256 µg/mL

NCC[C@H](O)C(=O)N[C@@H]1C[C@H](N)[C@@H](O[C@H]2O[C@H](CN)[C@@H](O)[C@H](O)[C@H]2O)[C@H](O)[C@H]1O[C@H]1O[C@H](CO)[C@@H](O)[C@H](N)[C@H]1O [amikacin]
susceptibility indicated by reported MIC [3]: susceptible | susceptibility indicated by reported MIC [5]: susceptible

CO[C@H]1/C=C/O[C@@]2(C)Oc3c(C)c(O)c4c(c3C2=O)C2=NC3(CCN(CC(C)C)CC3)NC2=C(NC(=O)/C(C)=C\C=C\[C@H](C)[C@H](O)[C@@H](C)[C@@H](O)[C@@H](C)[C@H](OC(C)=O)[C@@H]1C)C4=O [rifabutin]
susceptibility indicated by reported MIC [3]: susceptible | susceptibility indicated by reported MIC [5]: susceptible

C[C@@H](O)[C@H]1C(=O)N2C(C(=O)O)=C(SCCN=CN)C[C@H]12 [IPM, imipenem]
MIC [3]: 24 µg/mL (≈ 80.2 µM) | increased MIC in M9510 relative to 19977 [4]: 3 fold | MIC90 [6]: 16 µg/mL (≈ 53.4 µM) | IC50 (PbpB): 4 ± 2 µM | fold more potent inhibition of PbpB than FOX (PbpB; IC50 comparison IPM vs FOX): 3 fold | IC50 for the four enzymes, in mass units [17]: 0.5 to 2 µg/mL | inhibition of Mero-sCy5 labeling of targets in lysate [1]: abolished ABP labeling | MIC90 [7]: 16 µg/mL (≈ 53.4 µM) | IC50 (Ldt4 [8]; IC50 (best-fit value, example analysis Figure S8), Ldt4 with IPM, one experiment, 95% CI 1.796 to 11.10, R squared 0.8570): 5.18 µM | IC50 (Ldt4 [8]; [21]): 4 ± 2 µM | HillSlope (best-fit value, example analysis Figure S8) (Ldt4 [8]; Ldt4 with IPM, one experiment): -1.416 | IC50 (MAB_4800): 7 ± 3 µM | MIC [5]: 8 µg/mL (≈ 26.7 µM) | fCss,avg (median unbound average steady-state plasma concentration) [10]: 12.2 µg/mL | IC50 (MAB_0330 [11]): 170 µM | IC50 (DacB2 [12]): 2 ± 1 µM | inhibition of Mero-sCy5 labeling of targets in lysate [2]: abolished ABP labeling

MAB_3998 (Mycobacteroides abscessus ATCC 19977)
Km [18]: 150 ± 9 µM | kcat [18]: 0.0022 ± 6.1e^-5 s^-1 | kcat/Km [18]: 14 M⁻¹ s⁻¹

C[C@@H](O)[C@H]1C(=O)N2C(C(=O)O)=C(S[C@@H]3CN[C@H](C(=O)N(C)C)C3)[C@H](C)[C@H]12 [meropenem]
inhibition of Mero-sCy5 labeling of targets in lysate [1]: abolished ABP labeling | inhibition of Mero-sCy5 labeling of targets in lysate [2]: abolished ABP labeling

C[C@H]1[C@H](NC(=O)/C(=N\OC(C)(C)C(=O)O)c2csc(N)n2)C(=O)N1S(=O)(=O)O [AZT, aztreonam]
inhibition of Mero-sCy5 labeling of targets in lysate [1]: largely ineffective inhibitors | inhibition of Mero-sCy5 labeling of targets in lysate [2]: largely ineffective inhibitors

C=CC1=C(C(=O)O)N2C(=O)[C@@H](NC(=O)/C(=N\O)c3csc(N)n3)[C@H]2SC1 [cefdinir]
MIC [3]: 128 µg/mL (≈ 324 µM) | MIC [5]: 128 µg/mL (≈ 324 µM)

B1: Ldt4 (Mycobacteroides abscessus ATCC 19977) (protein)
chain: GDVPPLPVGLLKNSPNNGDVVGVAQPITIVFAAPVTDKKAAEAAVKITTSKPAPGYFYWYTDQQLRWKPTQFWPANTDVNVNAGGTKWSFKVGDAFVSTVDDATYTMTVTRNGVVERTMPISMGKHDKKHETKNGTYYVSEKFQKMVMDSSTYGVPVNSAEGYKLDVYWATRLSNSGIFVHAAPWSVGAQGKSDTSHGCINVNTDNATWFFNQSHPGDPVIVKNSPGGPYKDYDGYDDWQRF
Km [19, 22]: 65 ± 7 µM | kcat [19, 22]: 0.0042 ± 2.0e^-4 s^-1 | kcat/Km [19, 22]: 65 M⁻¹ s⁻¹

B2: PbpB (Mycobacteroides abscessus ATCC 19977) (protein)
chain: GPRAAGLRAEASGQLKVTETEKALRGTIVDRAGNKLAFTIEARALTFQPKKIREQLNKAWEKSQEILKDPGKSDADKAAAAKIRSVEPERRLQDIANGVSAKLGNKPDAKSLLKKIRSDDTFAYLARSVDPGIAAQITKEFPEVGAERQDIRQYPGGSLAANIVGSIDWEGYGLLGLEDSLDSALAGKDGSLTYDRGSDGAVIPGSYRDRHDAVNGSTVELTLDNDIQFYVQQQVQQAKDLSEARSVSAVVLDSKTGEVLAMANDNTFDPSQNLGKQGNREMGNLSVSSPFEPGSVNKVITASAVIENDLSNPDEVLQVPGSINMGGVTVRDAWPHGTVPFTTTGVFGKSSNVGTLMLAQRVGPERFMDLVDKFGLGQRTGVGLPGESAGIVPPIEQWSGSTFSNLPIGQGLSMTLLQMAGMYQAIANDGVRIPPRIVKSITAPDGSRKEEPRPEPVQVVNAGTARTVRNMLRAVLQPDARQIQNGTGASGAVDGYQLSGKTGTAQQINPACGCYFDDVYWITFAGIATTDDPRYVIGIEMNAPKRGSDGSPHMTAAPLFHNIASWLMRRENVPLSPDPGPPLILQAT
Km [19, 23]: 220 ± 27 µM | kcat [19, 23]: 0.00075 ± 3.1e^-5 s^-1 | kcat/Km [19, 23]: 3.4 M⁻¹ s⁻¹
